Assay: Particle size distribution (Psd comparison) of Tiacumicin B crystals
Type: physicochemical
Conditions: in µm (unit assumed)
Description: 3000 g of pure Tiacumicin B were dissolved in about 40 L of CH3OH. 80 L of (C2H5)2O were added under stirring to the solution at the room temperature. The solution was then heated at 39° C. and the mixer speed was set at 20 rpm; 160 L of n-Pentane were added in about 30 minutes. The mixer speed was then set at 15 rpm and the solution was cooled at 5° C. in about 5 hours. The suspension was then filtered and product dried under vacuum. The crystal obtained has a not well defined crystal shape and a high amount of fine that make the product difficult to formulate. […] of pure Tiacumicin B were dissolved in 33 mL of CH3OH. 66 mL of (C2H5)2O were added under stirring to the solution at the room temperature. The solution was then heated at 39° C. and the mixer speed was set at 400 rpm; 132 mL of n-Pentane were added in about 30 minutes. The mixer speed was then set at 200 rpm and the solution was cooled at 5° C. in about 60 minutes. The suspension was heated at 30° C. and maintained at this temperature for about 30 minutes; then the suspension was cooled at 5° C. in about 60 minutes. The suspension was heated at 25° C. and maintained at this temperature for about 30 minutes; then the suspension was cooled at 5° C. in about 60 minutes. The suspension was heated at 15° C. and maintained at this temperature for about 30 minutes; then the suspension was cooled at 5° C. in about 60 minutes and maintained in this condition over night. The crystals obtained has a different more homogeneous and regular crystal habit respect to that obtained with the standard process and an improved psd (see FIGS. 3 and 4 and Table). 2000 g of pure Tiacumicin B were dissolved in 26 L of CH3OH. 52 L of (C2H5)2O were added under stirring to the solution at the room temperature. The solution was then heated at 39° C. and the mixer speed was set at 20 rpm; 130 L of n-Pentane were added in about 30 minutes. The mixer speed was then set at 8 rpm and the solution was cooled at 35° C. and maintained at this temperature for about 60 minutes. The suspension was cooled at 30° C. and maintained at this temperature for about 60 minutes. Then the suspension was cooled at 25° C. and maintained at this temperature for about 30 minutes. Then the suspension was cooled at 20° C. and maintained at this temperature for about 30 minutes. Then the suspension was cooled at 15° C. and maintained at this temperature for about 30 minutes. Then the suspension was cooled at 10° C. and maintained at this temperature for about 30 minutes. Then the suspension was cooled at 5° C. and maintained at this temperature for about 30 minutes. The suspension was heated at 30° C. and maintained at this temperature for about 30 minutes; then the suspension was cooled at 5° C. in about 60 minutes. The suspension was heated at 25° C. and maintained at this temperature for about 30 minutes; then the suspension was cooled at 5° C. in about 60 minutes. The suspension was heated at 15° C. and maintained at this temperature for about 30 minutes; then the suspension was cooled at 5° C. in about 60 minutes and maintained in this condition over night. The crystals obtained has a different more homogeneous and regular crystal habit respect to that obtained with the standard process and an improved psd (see FIGS. 3 and 4 and Table).

Row | D(0.1) | D(0.5) | D(0.9) | Compound
1 | 7.04 | 23.98 | 55.27 | CCc1c(Cl)c(O)c(Cl)c(O)c1C(=O)O[C@H]1[C@H](O)[C@H](OC)[C@H](OC/C2=C\C=C\C[C@H](O)/C(C)=C/[C@H](CC)[C@@H](O[C@@H]3OC(C)(C)[C@@H](OC(=O)C(C)C)[C@H](O)[C@@H]3O)/C(C)=C/C(C)=C/C[C@@H]([C@@H](C)O)OC2=O)O[C@@H]1C [Example 3, Tiacumicin B]
2 | 10.82 | 35.94 | 73.79 | CCc1c(Cl)c(O)c(Cl)c(O)c1C(=O)O[C@H]1[C@H](O)[C@H](OC)[C@H](OC/C2=C\C=C\C[C@H](O)/C(C)=C/[C@H](CC)[C@@H](O[C@@H]3OC(C)(C)[C@@H](OC(=O)C(C)C)[C@H](O)[C@@H]3O)/C(C)=C/C(C)=C/C[C@@H]([C@@H](C)O)OC2=O)O[C@@H]1C [Example 2, Tiacumicin B]
3 | 3.90 | 11.36 | 27.35 | CCc1c(Cl)c(O)c(Cl)c(O)c1C(=O)O[C@H]1[C@H](O)[C@H](OC)[C@H](OC/C2=C\C=C\C[C@H](O)/C(C)=C/[C@H](CC)[C@@H](O[C@@H]3OC(C)(C)[C@@H](OC(=O)C(C)C)[C@H](O)[C@@H]3O)/C(C)=C/C(C)=C/C[C@@H]([C@@H](C)O)OC2=O)O[C@@H]1C [Example 1, Tiacumicin B]
